Like-named read-outs stand apart in the source and are kept apart here.
Legend:
[1] = test system: L929 (mouse lung epithelial tumor); test: MTT proliferation inhibition, L929 cells; assay type: cell-based; details: Mus musculus, read-out: Inhibitory rate (%)
Excerpt: (§1) The Silica Gel Column Chromatography and Countercurrent Chromatography preparation techniques were used to obtain Friedelin monomer extracted from EZR2002 for the sake of evaluating its anti-tumor activity further. The purity of this monomer determined by GC-MS analysis was 90.5%.
(§2) A375 (human malanoma), L929 (mouse lung epithelial tumor), Hela (human cervical tumor) and THP-1 (human macrophage tumor) cell lines were used for active filtration test in this experiment. Among these cell lines, A375, L929 and Hela were adherent cells while THP-1 was a kind of suspended cell.
(§3) All cells were maintained in the RPMI-1640 culture medium supplemented with 10% fetal calf serum, penicillin (100 U/mL), streptomycin (100 μg/mL) and 0.2% NaHCO3. These supplements were dissolved in deionized water and 0.22 μm filtration membrane was used for filter sterilization. The fetal calf serum was inactivated 30 min at 56° C. prior to an experiment. Cells were cultured in a humidified incubator of 5% CO2 at 37° C.
(§4) A375, L929 and Hela cells in logarithmic growth phases were seeded at a cell density of approximately 5×10^4 cells/mL in 96 pore plates (100 μL/well). Furthermore, THP-1 cell was seeded at a cell density of approximately 1×10^5 cells/mL because it was smaller than others. Samples were added in suspended cells after culturing 4 h and in adherent cells after culturing 12 h. Friedelin was dissolved in DMSO in advance and then in the culture medium with the ultrasonic treatment, where the final concentration of the solvent in the culture medium was <0.1% (v/v). Sample was added for 7.5, 15, 30, 60, 120, 240, 480 and 960 μmol/L. Each level had four parallel pores and a negative control. The cells were incubated for 24 and 48 h and then 15 μL/well MTT solvent (5 mg/mL) was added.
(§5) The cells were incubated for 48 h, followed by centrifugation at 1500 rpm for 5 min. The supernatant was removed and 150 μL/well DMSO was added, followed by micro-vibrator shocking for 10 min and crystal dissolving completely. The absorbance (OD value) was measured by enzyme-labeled meter at 492 nm. Furthermore, the inhibitory rate of cell proliferation and the IC50 value of friedelin were counted by using Bliss method.
(§6) The de-methyl-cantharidin was taken as the positive control and the inhibitory rate of A375, L929 and Hela cells were measured by adding de-methyl-cantharidin (120 μmol/L) for 24 and 48 h (Table 8). Furthermore, the corresponding data of Friedelin were counted.

[2] = test system: Hela (human cervical tumor); test: MTT proliferation inhibition, Hela cells; assay type: cell-based; details: Homo sapiens, HeLa, read-out: Inhibitory rate (%)
Excerpt: as §1, §2, §3, §4, §5, §6

[3] = test system: A375 (human malanoma); test: MTT proliferation inhibition, A375 cells; assay type: cell-based; details: Homo sapiens, read-out: Inhibitory rate (%)
Excerpt: as §1, §2, §3, §4, §5, §6

[4] = test system: P388 mouse leukemia cells; test: Growth inhibition of P388 cells (MTT reduction method, 48 h); assay type: cell-based
Method: […] growth […] The effect time was 48 h and 72 h, respectively.
(§7) 10^−5, 10^−6 and 10^−7 mol/L were determined as three critical levels. Invalid, weak effect and strong effect were determined as three evaluation indices.

[5] = test system: A549 human lung adenocarcinoma cells; test: Growth inhibition of A549 cells (SRB protein coloring method, 72 h); assay type: cell-based
Method: Sulforhodamine B (SRB) protein staining method and microculture tetrozolium (MTT) reduction method were used to measure the growth inhibitory effects of tumor cells by EZR2002 with the test objects of P388 mouse leukemia cells and A549 human lung adenocarcinoma cells, respectively. The effect time was 48 h and 72 h, respectively.
as §7

[6] = compounds from bamboo shoot sheath; Sakai 1999; cited from earlier work

Compound: O=C1OC(=O)C2C3CCC(O3)C12 (centres unmarked) [De-methyl-cantharidin, de-methyl-cantharidin, reference compound]
- inhibition at 120 µM ([1]; L929, 24 h): 40.5%
- inhibition at 120 µM ([1]; L929, 48 h): 34.4%
- inhibition at 120 µM ([2]; 24 h): 34.1%
- inhibition at 120 µM ([2]; 48 h): 43.7%
- inhibition at 120 µM ([3]; A-375, 24 h): 38.6%
- inhibition at 120 µM ([3]; A-375, 48 h): 50.4%

Compound: CC[C@]1(O)C[C@H]2CN(CCc3c([nH]c4ccccc34)[C@@](C(=O)OC)(c3cc4c(cc3OC)N(C=O)[C@H]3[C@@](O)(C(=O)OC)[C@H](OC(C)=O)[C@]5(CC)C=CCN6CC[C@]43[C@@H]65)C2)C1 [Vincristin]
- Evaluation [4]: Strong
- Inhibition rate (%) ([4]; sample level 10^−4 mol/L): 93.1%
- Inhibition rate (%) ([4]; sample level 10^−5 mol/L): 94.3%
- Inhibition rate (%) ([4]; sample level 10^−6 mol/L): 94.8%
- Inhibition rate (%) ([4]; sample level 10^−7 mol/L): 94.7%
- Inhibition rate (%) ([4]; sample level 10^−8 mol/L): 93.2%
- Evaluation [5]: Weak
- Inhibition rate (%) ([5]; sample level 10^−4 mol/L): 71.3%
- Inhibition rate (%) ([5]; sample level 10^−5 mol/L): 71.6%
- Inhibition rate (%) ([5]; sample level 10^−6 mol/L): 66.5%
- Inhibition rate (%) ([5]; sample level 10^−7 mol/L): 44.3%
- Inhibition rate (%) ([5]; sample level 10^−8 mol/L): 9.6%

Compound: O=C1c2c(O)cc(O)cc2O[C@H](c2ccc(O)c(O)c2)[C@H]1O [taxifolin]
- anti-oxidative activity relative to that of α-tocopherol [6]: ~1%

Compound: COc1cc(-c2cc(=O)c3c(O)cc(O)cc3o2)cc(OC)c1O [tricin]
- anti-oxidative activity relative to that of α-tocopherol [6]: ~10%
